PubChem BioAssay (NCI)
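Step 1: Grow cells in 96-well plates. Step 2: Expose to compound for 48 hours at 5 concentrations. Step 3: Interpolate endpoints linearly; if unreached, use highest concentration. The concentration for 50% growth inhibition is given as GI50. Definition used: TGI = concentration required for complete inhibition of growth.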

Experiments:
Experiment in all cases: NCI anticancer screen, dose series, 48 h
OVCAR-3 ovarian = test system: OVCAR-3 ovarian
EKVX NSCLC = test system: EKVX NSCLC
UACC-62 melanoma = test system: UACC-62 melanoma
U251 CNS = test system: U251 CNS
RXF 393 renal = test system: RXF 393 renal
786-0 renal = test system: 786-0 renal
CAKI-1 renal = test system: CAKI-1 renal
SN12C renal = test system: SN12C renal
TK-10 renal = test system: TK-10 renal
MCF7 breast = test system: MCF7 breast

Structure (SMILES)	TGI (OVCAR-3 ovarian) [µM]	TGI (EKVX NSCLC) [µM]	TGI (UACC-62 melanoma) [µM]	TGI (U251 CNS) [µM]	TGI (RXF 393 renal) [µM]	TGI (786-0 renal) [µM]	TGI (CAKI-1 renal) [µM]	TGI (SN12C renal) [µM]	TGI (TK-10 renal) [µM]	GI50 (OVCAR-3 ovarian) [µM]	GI50 (EKVX NSCLC) [µM]	GI50 (UACC-62 melanoma) [µM]	GI50 (U251 CNS) [µM]	GI50 (786-0 renal) [µM]	GI50 (SN12C renal) [µM]	GI50 (MCF7 breast) [µM]	TGI (MCF7 breast) [µM]	GI50 (TK-10 renal) [µM]	GI50 (RXF 393 renal) [µM]	GI50 (CAKI-1 renal) [µM]
CCCC1C[C@H]2CCCCN2[C@H]2CCCN12 (stereo not given in full)	> 100	> 100	> 100	> 68	> 90.1	> 100	> 100	> 100	> 100	–	–	–	–	–	–	–	–	–	–	–
CC[C@H](C)[C@H](NC(=O)[C@H]1CCCCN1C)C(=O)N(C)[C@H](CCc1nc(C(=O)N[C@@H](Cc2ccccc2)C[C@H](C)C(=O)O)cs1)C(C)C	0.181	> 25	> 25	> 25	–	> 25	–	> 25	> 25	0.0371	0.92	0.0861	0.127	0.476	0.445	0.0271	> 25	> 14.9	–	–
O=C1C(Cl)=C(Nc2ccc(S(=O)(=O)c3ccc(NC4=C(Cl)C(=O)c5ccccc5C4=O)cc3)cc2)C(=O)c2ccccc21	–	9.07	3.18	–	2.96	3.29	2.74	–	3.04	–	2.36	1.66	–	1.86	–	–	–	1.67	1.6	1.38
CC(C)=C[C@@H]1C[C@H](C)[C@H]2CC[C@H](C)c3c(O)c(OC4OC(C)C(O)C(O)C4O)c(C)c1c32 (stereo not given in full)	8.43	34.2	–	27.8	23.2	33	28.7	23.5	30.2	1.93	19.3	–	14.7	17.8	11.3	13.9	27.7	16.3	11	14.5
O=C(Nc1ccn(C2CC(O)C(COC(c3ccccc3)(c3ccccc3)c3ccccc3)O2)c(=O)n1)c1ccccc1 (stereo not given)	3.52	16.2	20	11.4	6.99	3.51	18.4	3.61	–	–	–	–	–	–	–	–	8.39	–	–	–
CCCCCCCCCCCCCCCCCc1nc(Cl)nc(Cl)c1Cl	> 100	–	> 100	> 100	> 100	> 100	> 100	> 100	> 100	–	–	–	–	–	–	–	> 100	–	–	–
COC(=O)C1=NC(=S)NC(c2ccccc2)C1c1nc2ccccc2o1 (stereo not given)	> 50	> 50	> 50	> 50	> 50	> 50	> 50	> 50	> 50	–	–	–	–	–	–	–	–	–	–	–
COc1ccc(/C=C/C(=O)c2c(-c3ccccc3)nn(C)c(=O)c2N2CC2C)cc1 (stereo not given)	67.7	94.3	71.2	85.6	93.6	> 100	> 100	> 100	> 100	–	–	–	–	–	–	–	–	–	–	–
FC(F)(F)c1ccccc1C1SCc2nc3ccccc3n21 (stereo not given)	> 100	> 100	> 100	> 100	> 100	> 100	> 100	> 100	> 100	–	–	–	–	–	–	–	–	–	–	–
